The values that follow come from patent US12503453B2, “USP7 inhibition” (Dana-Farber Cancer Institute, Inc., priority 2018, dated 2025).

Where two headings read alike, the source gives them in different places.

One assay addresses USP7 (Homo sapiens (Human), UniProt Q93009). Put plainly: Competitive ABPP with HA-Ub-VS in MCF7 crude cell extracts. In kind it is binding. The conditions noted are these: read-out: IC50 of inhibition of HA-Ub-VS labeling. As for the experimental part: HA-Ub-VS experiments were performed as previously described in Lamberto, I. et al. Structure-Guided Development of a Potent and […] Selective Non-covalent Active-Site Inhibitor of USP7. Cell Chem. Biol. 24, 1490-1500 (2017). Briefly, target engagement lysis buffer (50 mM Tris pH 8.0, 150 mM NaCl, 5 mM MgCl2, 0.5 mM EDTA, 0.5% NP-40, 10% glycerol, 1 mM TCEP, protease and phosphatase inhibitors) was added to cell pellets on ice. Lysate was cleared by centrifugation and diluted to 1.67 mg/mL. Where indicated, 30 μL lysate was then incubated with inhibitors or DMSO for the indicated timepoints. 1 μM HA-Ub-VS was then added to the lysate and incubated at RT for the indicated time points. Labeling reactions were quenched with 4×LDS sample buffer (Thermo Fisher B0007) supplemented with 10% BME, vortexed vigorously, and heated to 95° C. for 5 minutes. Samples were resolved by SDS-PAGE and analyzed by Western blot with the indicated antibodies.

Assay [1] deals with p53 target genes in MCF7 cells. Put plainly: Quantitative real-time PCR of MCF7 cells. The class given is cell-based. The conditions noted are these: 1 μM, 6 or 24 hours. As for the experimental part:
After cell treatment under the indicated conditions, total cellular RNA was purified using a Qiagen RNEasy kit. 1 μg of RNA was then converted to cDNA using SuperScript III First-Strand Synthesis (Invitrogen). cDNA from each sample was then combined with the indicated TaqMan probe and 2× MasterMix in a 96-well Fast RT-PCR plate (Invitrogen). qPCR was performed on an Invitrogen 7500 Fast qPCR instrument and gene expression was calculated using the 2^−ΔΔct method on Graphpad Prism.

For the next assay, the target named is HEK293 proteome (USP7) (Homo sapiens (Human), UniProt Q93009). Put plainly: Compound 6-DTB proteome-wide profiling. The class given is binding. The conditions noted are these: HEK293 cell lysates, 5 hours, 1 μM or 10 μM. The procedure:
HEK 293AD cells were lysed as described above, and the lysate was cleared by centrifugation. […] SDS was added to a final concentration of 1.2% (27.2 μL of a 10% stock), and denatured by heating to 80° C. for 5 minutes. After cooling to RT, 1125 μL 1×PBS was added to dilute the final SDS concentration to 0.2%. 50 μL streptavidin agarose slurry was added to each sample, followed by incubation at RT for 3 hours. After streptavidin enrichment, samples were washed vigorously (2×0.2% SDS, 3×PBS, 3×ddH2O). After the final wash, all supernatant was removed using a flat-bottom tip, and the resin was flash frozen and stored at −80° C. until workup for TMT labeling.
Streptavidin beads were resuspended in 95 μL 100 mM Tris pH 8.0. Each sample was denatured with 0.1% rapigest, reduced (10 mM dithiothreitol), alkylated (22.5 mM iodoacetamide), and digested with trypsin overnight at 37° C. […] Eluted peptides were then analyzed by nanoLC-MS as described (Ficarro, S. B. et al. Improved electrospray ionization efficiency compensates for diminished chromatographic resolution and enables proteomics analysis of tyrosine signaling in embryonic stem cells. Anal. Chem. 81, 3440-3447 (2009)) with a NanoAcquity UPLC system (Waters, Milford, MA) interfaced to a QExactive HF mass spectrometer (Thermofisher Scientific, San Jose, CA). […]

Chain of USP7 (Q93009 whole entry): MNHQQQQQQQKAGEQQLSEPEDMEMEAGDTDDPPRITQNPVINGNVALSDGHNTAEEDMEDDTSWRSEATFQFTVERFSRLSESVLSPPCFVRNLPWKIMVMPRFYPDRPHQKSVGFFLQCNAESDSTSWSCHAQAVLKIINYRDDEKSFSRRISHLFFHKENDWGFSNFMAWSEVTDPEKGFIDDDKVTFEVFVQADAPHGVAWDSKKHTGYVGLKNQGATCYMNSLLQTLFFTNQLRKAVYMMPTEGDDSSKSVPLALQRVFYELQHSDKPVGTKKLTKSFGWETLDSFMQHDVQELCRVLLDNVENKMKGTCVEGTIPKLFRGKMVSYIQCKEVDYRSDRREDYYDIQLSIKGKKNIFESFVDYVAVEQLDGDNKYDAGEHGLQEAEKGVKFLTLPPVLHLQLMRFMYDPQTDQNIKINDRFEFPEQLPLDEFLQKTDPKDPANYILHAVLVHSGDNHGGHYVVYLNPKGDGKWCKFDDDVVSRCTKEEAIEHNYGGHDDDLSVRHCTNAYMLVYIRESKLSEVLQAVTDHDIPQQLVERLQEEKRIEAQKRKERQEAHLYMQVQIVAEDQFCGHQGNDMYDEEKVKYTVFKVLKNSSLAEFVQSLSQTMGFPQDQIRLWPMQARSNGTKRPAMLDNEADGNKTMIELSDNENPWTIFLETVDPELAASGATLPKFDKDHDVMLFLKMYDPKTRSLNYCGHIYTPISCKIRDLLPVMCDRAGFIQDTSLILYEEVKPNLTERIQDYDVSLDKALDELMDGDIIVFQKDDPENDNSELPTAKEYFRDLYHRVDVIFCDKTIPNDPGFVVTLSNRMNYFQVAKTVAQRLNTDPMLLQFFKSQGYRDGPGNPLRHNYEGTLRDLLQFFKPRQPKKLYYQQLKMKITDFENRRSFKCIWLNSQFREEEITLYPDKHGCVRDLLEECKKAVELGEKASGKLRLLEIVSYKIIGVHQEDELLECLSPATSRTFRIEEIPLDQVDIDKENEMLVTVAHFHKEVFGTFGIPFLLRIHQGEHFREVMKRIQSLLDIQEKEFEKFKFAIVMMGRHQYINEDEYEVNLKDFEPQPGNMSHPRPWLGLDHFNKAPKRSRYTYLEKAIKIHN
Chain of HEK293 proteome (USP7) (Q93009 whole entry): as above

As to `CN1CCN(CCC(=O)Nc2ccc3c(=O)n(CC4(O)CCN(C(=O)[C@@H](CCCNC(=O)c5ccc6c(Cl)c7c(nc6c5)CCCC7)Cc5ccccc5)CC4)cnc3c2)CC1` [compound 6, (S)—N-(4-benzyl-5-(4-hydroxy-4-((7-(3-(4-methylpiperazin-1-yl)propanamido)-4-oxoquinazolin-3(4H)-yl)methyl)piperidin-1-yl)-5-oxopentyl)-9-chloro-5,6,7,8-tetrahydroacridine-3-carboxamide], the IC50 at USP7 (30 min preincubation) came out at 0.085 µM; at USP7 (4 hr preincubation) it was 0.008 µM. For the same compound, the “transcription of p53 target genes (CDKN1A, GADD45A, BAX, DDB2)” value in assay [1] was “stimulating transcription of p53 target genes”. Also, the “inhibition of compound 6-DTB labeling of USP7 (only protein of 566)” value against HEK293 proteome (USP7) was more than 3 fold.
